This is an account of results in ChEMBL document CHEMBL5241097, “Synthetically-tailored and nature-derived dual COX-2/5-LOX inhibitors: Structural aspects and SAR” (Eur J Med Chem, 2021).

For assay [1], the target named is T1, Prostaglandin G/H synthase 2 (Homo sapiens, UniProt P35354).
T1 sequence (P35354 whole entry): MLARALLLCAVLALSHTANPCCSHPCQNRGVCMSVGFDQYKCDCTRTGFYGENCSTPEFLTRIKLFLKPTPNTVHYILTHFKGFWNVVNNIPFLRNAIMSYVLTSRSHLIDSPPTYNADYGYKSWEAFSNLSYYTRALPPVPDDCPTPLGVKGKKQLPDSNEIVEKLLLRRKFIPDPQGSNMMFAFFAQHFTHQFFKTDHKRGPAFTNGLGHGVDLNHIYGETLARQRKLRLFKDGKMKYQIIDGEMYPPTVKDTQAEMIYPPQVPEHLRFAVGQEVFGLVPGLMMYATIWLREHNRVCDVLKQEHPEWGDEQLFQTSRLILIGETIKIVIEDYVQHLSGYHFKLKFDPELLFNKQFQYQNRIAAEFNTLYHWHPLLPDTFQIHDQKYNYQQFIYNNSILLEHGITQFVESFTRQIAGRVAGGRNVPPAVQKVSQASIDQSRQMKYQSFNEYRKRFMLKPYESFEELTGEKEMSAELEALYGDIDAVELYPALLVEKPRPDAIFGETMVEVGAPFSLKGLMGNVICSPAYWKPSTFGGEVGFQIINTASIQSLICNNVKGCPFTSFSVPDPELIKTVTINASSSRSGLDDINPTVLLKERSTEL
Put plainly: Inhibition of COX-2 (unknown origin).

Assay [2] deals with T1, Prostaglandin G/H synthase 2. Description: Inhibition of recombinant human COX-2 using arachidonic acid as substrate preincubated for 10 mins followed by substrate addition and measured after 2 mins by ELISA. For orientation: In an ELISA, binding on a coated surface is turned into a signal by an enzyme label.
The species entered for a further assay is Homo sapiens. Put plainly: Selectivity index, ratio of IC50 for inhibition of human COX1 to IC50 for inhibition of human COX2.
In assay [3] the test system is Rattus norvegicus. Description: Antiinflammatory activity in carragenan-induced paw edema rat model assessed as reduction in edema thickness at 28 microg/kg, ip and measured after 4 hrs by digital Vernier caliper analysis. The format is functional. Also noted: scale not given: the % may be the effect or the level left. The settings on record: dose 28 µg/kg.
Assay [4] addresses T1, Prostaglandin G/H synthase 2. Description: Inhibition of recombinant human COX-2 by enzyme immune assay.
For assay [5], the target named is T2, Polyunsaturated fatty acid 5-lipoxygenase (Homo sapiens, UniProt P09917).
T2 sequence (P09917 whole entry): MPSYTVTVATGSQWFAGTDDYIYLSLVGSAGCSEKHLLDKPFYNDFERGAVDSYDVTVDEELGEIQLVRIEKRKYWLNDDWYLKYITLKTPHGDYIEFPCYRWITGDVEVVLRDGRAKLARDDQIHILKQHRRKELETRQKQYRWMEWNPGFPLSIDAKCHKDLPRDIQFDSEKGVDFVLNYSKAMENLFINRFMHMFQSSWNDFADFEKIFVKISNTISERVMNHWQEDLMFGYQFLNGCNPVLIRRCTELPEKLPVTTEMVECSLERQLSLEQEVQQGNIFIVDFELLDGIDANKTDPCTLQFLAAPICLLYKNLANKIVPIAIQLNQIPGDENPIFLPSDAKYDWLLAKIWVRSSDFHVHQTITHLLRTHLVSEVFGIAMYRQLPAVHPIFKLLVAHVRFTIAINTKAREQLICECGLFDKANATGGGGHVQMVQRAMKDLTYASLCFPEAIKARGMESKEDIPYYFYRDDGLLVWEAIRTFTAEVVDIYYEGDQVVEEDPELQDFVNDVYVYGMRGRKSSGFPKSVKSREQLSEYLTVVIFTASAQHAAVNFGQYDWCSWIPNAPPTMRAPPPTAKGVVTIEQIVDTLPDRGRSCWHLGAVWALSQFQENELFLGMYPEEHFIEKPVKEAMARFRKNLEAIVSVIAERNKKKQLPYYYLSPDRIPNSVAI
Put plainly: Inhibition of 5-LOX (unknown origin) by enzyme immune assay.

A short description of assay [6]: Selectivity index, ratio IC50 for inhibition of ovine COX-1 to IC50 for inhibition of recombinant human COX-2.
In assay [7] the target is T2, Polyunsaturated fatty acid 5-lipoxygenase. Put plainly: Inhibition of 5-LOX (unknown origin) by colorimetric assay.
For assay [8], the system named is Rattus norvegicus. Description: Antiinflammatory activity in Wistar rat carragenan-induced paw edema model assessed as reduction in edema thickness at 50 mg/kg, po and measured after 2 hrs. The format is functional. Also noted: scale not given: the % may be the effect or the level left.
Assay [9] addresses T1, Prostaglandin G/H synthase 2. Put plainly: Inhibition of COX-2 (unknown origin) using arachidonic acid as substrate preincubated for 5 mins followed by substrate addition by colorimetric assay.
The target is the same in assay [10]. Put plainly: Inhibition of recombinant human COX-2 using arachidonic acid as substrate preincubated for 10 mins followed by substrate addition and measured after 2 mins by Ellman's reagent based ELISA. For orientation: Ellman's reagent forms a yellow product with free thiols.
The target in assay [11] is T2, Polyunsaturated fatty acid 5-lipoxygenase. Put plainly: Inhibition of recombinant human 5-LOX using arachidonic acid as substrate incubated for 10 mins by spectrophotometric analysis.
The target in assay [12] is T1, Prostaglandin G/H synthase 2. Description: Inhibition of COX-2 (unknown origin) using arachidonic acid as substrate preincubated for 15 mins followed by substrate addition by colorimetric assay.
Assay [13] can be described thus: Inhibition of soybean 5-LOX using linoleic acid as substrate by spectrophotometric analysis. More on the design: species or system Glycine max.
Assay [14] addresses T2, Polyunsaturated fatty acid 5-lipoxygenase. Description: Inhibition of 5-LOX (unknown origin) using linoleic acid as substrate preincubated for 5 mins followed by substrate addition by spectrophotometric assay.
The target in assay [15] is Prostaglandin G/H synthase 1 (Homo sapiens, UniProt P23219). Description: Inhibition of human COX-1 using arachidonic acid as substrate preincubated for 10 mins followed by substrate addition and measured after 2 mins by ELISA.
The test system of assay [16] is Rattus norvegicus. Description: Antiinflammatory activity in Wistar rat assessed as reduction in carragenan-induced paw edema at 10 mg/kg, po for 7 days followed by carrageenan stimulation and measured upto 6 hrs by vernier caliper method. The format is functional. Conditions: time 7 day. More on the design: scale not given: the % may be the effect or the level left.

Assay [17] has as its target T2, Polyunsaturated fatty acid 5-lipoxygenase. Put plainly: Inhibition of 5-LOX (unknown origin).
For assay [18], the system named is Rattus norvegicus. Description: Antiinflammatory activity in po dosed Sprague-Dawley rat assessed as reduction in carragenan-induced paw edema and measured after 4 hrs by vernier caliper method. Format: functional. Also noted: scale not given: the % may be the effect or the level left.
In assay [19] the target is T1, Prostaglandin G/H synthase 2. Put plainly: Inhibition of COX-2 (unknown origin) by colorimetric method.
Assay [20] shares this target. Put plainly: Inhibition of COX-2 (unknown origin) using arachidonic acid as substrate preincubated for 5 mins followed by substrate addition and measured after 20 mins by colorimetric assay.
Assay [21] can be described thus: Inhibition of soybean 5-LOX using arachidonic acid as substrate preincubated for 5 mins followed by substrate addition and measured after 5 mins by microplate spectrophotometric analysis. Also noted: species or system Glycine max.
The subject of another assay is DU-145. Description: Antiproliferative activity against human DU-145 cells assessed as reduction in cell viability incubated for 48 hrs by MTT assay. The settings on record: DU-145, 48 h. The format is functional, cell-based. For orientation: Tetrazolium dyes change colour on reduction, which living cells bring about.

SMILES strings stand for the structures.

Chain of Prostaglandin G/H synthase 1 (P23219 whole entry): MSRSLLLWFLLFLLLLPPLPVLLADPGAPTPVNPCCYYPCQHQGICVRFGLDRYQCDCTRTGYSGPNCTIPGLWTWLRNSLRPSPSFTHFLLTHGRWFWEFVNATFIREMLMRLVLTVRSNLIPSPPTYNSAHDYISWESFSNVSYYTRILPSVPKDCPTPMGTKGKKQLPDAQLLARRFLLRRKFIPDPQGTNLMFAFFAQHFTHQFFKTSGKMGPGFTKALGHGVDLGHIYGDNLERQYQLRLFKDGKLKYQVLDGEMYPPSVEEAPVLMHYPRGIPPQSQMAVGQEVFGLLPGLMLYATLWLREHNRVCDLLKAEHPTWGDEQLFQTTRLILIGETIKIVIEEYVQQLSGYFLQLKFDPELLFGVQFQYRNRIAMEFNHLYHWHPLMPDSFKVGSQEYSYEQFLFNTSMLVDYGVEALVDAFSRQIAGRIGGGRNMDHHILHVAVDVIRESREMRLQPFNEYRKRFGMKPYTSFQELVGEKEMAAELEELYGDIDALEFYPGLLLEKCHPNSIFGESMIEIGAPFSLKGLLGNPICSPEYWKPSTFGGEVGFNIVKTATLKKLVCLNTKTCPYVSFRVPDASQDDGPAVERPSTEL

One may read the IC50 as the concentration at which inhibition is half-maximal. `O=Cc1ccc(O)c(O)c1` [PROTOCATECHUALDEHYDE] registered a half-inhibitory concentration (IC50) in assay [1] of 19.7 µM.
Consider `CCc1cc(OC)c(OC)c(OC)c1`, for which the IC50 in assay [2] amounted to 0.18 µM. Besides, in the assay listed under Homo sapiens, the Ratio IC50 amounted to 668.
Regarding `CCCCCCNC(=O)c1cc(NCc2cc(O)ccc2O)ccc1O`, the Activity in the assay with Rattus norvegicus [3] was found to be 40.05%. Further, the half-inhibitory concentration (IC50) came out at 0.1 µM in [4] and 11.9 µM in [5]. Also, the Ratio IC50 in assay [6] was 145.
In the case of `CC1=NN(c2ccc(S(N)(=O)=O)cc2)C(=O)/C1=N/Nc1ccc(C(=O)O)cc1`, the IC50 is 0.53 µM in [7] and 0.77 µM in [9]. The Activity with Rattus norvegicus [8] worked out at 72.72%.
Regarding `N=C1/C(=N\Nc2ccc(S(N)(=O)=O)cc2)C(N)=NN1c1ccc(S(N)(=O)=O)cc1`, the half-maximal inhibitory concentration (IC50) was found to be 2.78 µM in assay [7] and 0.92 µM in assay [9].
In the case of `Cc1ccc(-c2ncc(Cl)cc2-c2ccc(S(C)(=O)=O)cc2)cn1`, the Ratio IC50 in the assay listed under Homo sapiens was 91.3.
On to `CC1=CCCC2C1(C)CCC(C)C2(C)CC/C(=C\C(=O)O)CO` (stereo unspecified), for which the IC50 turned out to be 12.7 µM in [10] and 30.5 µM in [11].
For the compound `NC(=O)c1ccc(-c2nc(CSc3nc4ccccc4s3)no2)cc1`, the half-maximal inhibitory concentration (IC50) in assay [12] came to 6.8 µM; in assay [13], 6.4 µM.
In the case of `O=C(c1sc(N(c2ccccc2)c2ccccc2)nc1-c1ccc([N+](=O)[O-])cc1)c1cccc2ccccc12`, the half-inhibitory concentration (IC50) in [2] is 0.07 µM; in assay [14], 0.29 µM; in assay [15], 8.06 µM. Moreover, in the assay filed under Homo sapiens, the Ratio IC50 was 115. Further, the Activity in the assay with Rattus norvegicus [16] was found to be 63%.
On to `N#Cc1c(-c2ccc(Cl)cc2)csc1NC(=O)CN1CCOCC1`, for which, in the assay filed under Homo sapiens, the Ratio IC50 was 8.37. Besides, the IC50 is 4.33 µM in [17] and 5.45 µM in assay [19]. In addition, the Activity in the assay with Rattus norvegicus [18] stood at 58.77%.
Turning to `C=C1CCCC2C1(C)CCC(C)C2(C)CCC1=CC(=O)OC1O` (stereo unspecified), the IC50 was found to be 8.49 µM in assay [10] and 12.7 µM in assay [11].
As for `CC1=NN(c2ccc(S(N)(=O)=O)cc2)C(=O)/C1=N/Nc1ccc(S(N)(=O)=O)cc1`, the figures for the half-inhibitory concentration (IC50) in assay [7] and in assay [9] were 0.57 µM and 0.66 µM, respectively.
On to `O=C(c1ccc(-c2nc(CSc3nc4ccccc4s3)no2)cc1)N1CCOCC1`, for which the results for the concentration for half-maximal inhibition (IC50) in assay [12] and in assay [13] were 5 µM and 5.6 µM, respectively.
Consider `O=C(/N=C1\SC=C(c2ccc([N+](=O)[O-])cc2)C1c1ccccc1)c1cccc2ccccc12` (stereo unspecified), for which the figures for the IC50 in [2] and in assay [14] were 0.08 µM and 0.36 µM, respectively. For the same compound, the Ratio IC50 in the assay filed under Homo sapiens was 90.
Consider `CCc1ccc(-c2ccc(-n3cc(CNC(=O)C(=O)c4c[nH]c5ccccc45)nn3)cc2)cc1`, for which the IC50 in assay [20] came out at 0.12 µM; in assay [21], 7.73 µM; in the assay on DU-145 it was 8.17 µM.
`Cc1c(C(=O)N2CCN(c3ccccc3)CC2)nc2ccc(Cl)cc2c1O`: the IC50 in [14] came to 5.91 µM. For the same compound, in the assay filed under Homo sapiens, the Ratio IC50 worked out at 7.61.
Take `COc1cc([C@@H]2c3cc4c(cc3[C@@H](O[C@@H]3O[C@@H]5CO[C@@H](C)O[C@H]5[C@H](O)[C@H]3O)[C@H]3COC(=O)[C@H]23)OCO4)cc(OC)c1O` [ETOPOSIDE]: the 50% inhibitory concentration (IC50) in the assay with DU-145 turned out to be 9.8 µM.
`N=C1/C(=N\Nc2ccc(S(N)(=O)=O)cc2)C(N)=NN1c1ccccc1C(=O)O`: the IC50 in assay [7] came to 2.73 µM; in [9], 1.12 µM. In addition, the Activity in the assay on Rattus norvegicus [8] amounted to 15%.
As to `C=C1C(O)CCC2C1(C)CCC(C)C2(C)CCC1=CC(=O)OC1O` (stereo unspecified), the values for the half-maximal inhibitory concentration (IC50) in assay [10] and in [11] were 12.8 µM and 16.5 µM, respectively.
